Source: US11197856B2, “Bicyclic compounds and methods for their use in treating autism” (priority 2013, dated 2021)

Key:
[1] = test system: NMDA NR1 subunit; experiment: NMDA receptor-1 immunohistochemical staining of hippocampus; type: in vivo, male Wistar rats; details: CA1 and CA3; post-treatment
Experimental: Aged rats (male Wistar rats, 18-20 months old) were divided into four groups: two vehicle-treated (groups 1 and 3) and two G-2-AllylP treated (groups 2 and 4) (all groups n=6-8). Cyclic G-2-AllylP was synthesised by the Department of Medicinal Chemistry and dissolved in normal saline before the treatment. On day 1 a single dose of cyclic G-2-AllylP was given centrally (20 ng/animal, i.c.v.) to the animals in groups 2 and 4; saline was administered to groups 1 and 3. The memory tests using Novel Object Recognition Test started either on day 3 (groups 1 and 2) or 24 (groups 3 and 4) after the treatment. On the completion of the NORT, the rats were killed with an overdose of sodium pentobarbital and were perfused transcardially with normal saline followed by 10% formalin. Tissues collected at day 7 in groups 1 and 2, and at day 28 from groups 3 and 4. The brains were kept in the same fixative for a minimum of 2 days before being processed using a standard paraffin embedding procedure. Briefly, small blocks (10×10×3 mm) of tissue were fixed for up to 24 hrs. The blocks were then infiltrated and embedded with paraffin and cut in ribbons and mounted on slides. Slides were then stored until immunostaining was commenced. Synaptogenesis in brain tissue was examined using immunohistochemical staining. […]

[2] = test system: hippocampal CA1 neurons; experiment: Dendritic arborization, dendritic and spine length after Golgi staining, mecp2 knockout mice; type: in vivo
Experimental: We assess the effects of cG-2-AllylP treatment on dendrites. Transgenic mecp2 knockout mice (n=15 to 20) are administered cG-2-AllylP intraperitoneally at a dose of 20 mg/kg once daily. Following sacrifice dendritic spine density, spine length and aborization are examined after Golgi staining after nine weeks, according to Table 5 below.
Dendritic length is assessed by distance from the soma of representative hippocampal CA1 neurons from 9 week old male mecp2 null mutant mice treated with either saline (3 neurons analysed from 3 separate mice, n=9) or cG-2-AllylP (20 mg/kg i.p. 1/day, from week 4; 3 neurons are analysed from 3 separate mice, n=9).

Question: `C=CC[C@]12CCCN1C(=O)CNC2=O` [cG-2-AllylP, (8aS)-Allyl-hexahydropyrrolo[1,2-a]pyrazine-1,4-dione] was tested. Which “changes in the NMDA receptors” value [1] did it give?
Answer: not so pronounced

Question: What about the “dendritic length by distance from the soma” value ([2]; hippocampal CA1 neurons, vs saline) of the same molecule?
Answer: produces longer dendrites over much of the range of distances from the somas

Question: What about the “dendritic arborization and dendritic spine length” value ([2]; mecp2 knockout mice, 20 mg/kg i.p. once daily, nine weeks) of the same molecule?
Answer: improves dendritic arborization and increases dendritic spine length
